In ChEMBL document CHEMBL1201862, “PubChem BioAssay data set” (2004):
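96-well plates; 48 h exposure; 5 concentrations. Endpoints by linear interpolation between flanking doses. Not reached: highest tested concentration assigned. Here, GI50 denotes the concentration required for 50% inhibition of growth.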 Calls of active or inactive are those of the source. No stated cut-off is given here; in the data, active = GI50 up to about 1.1 µM and inactive = higher. Where a SMILES comes first, the peptide text is derived from it. [ ]: non-standard residue; d: D form. The star is where a group is joined. ξ: configuration not given here. ξPhe(4-NO2) = NC(Cc1ccc([N+](=O)[O-])cc1)C(=O)O; Boc = CC(C)(C)OC(=O)*; OBn = c1ccc(CO*)cc1

Key:
Test in all cases: NCI anticancer screen, dose series, 48 h
MDA-N = system: MDA-N
786-0 = system: 786-0
MDA-MB-231 = system: MDA-MB-231
CAKI-1 = system: CAKI-1
OVCAR-8 = system: OVCAR-8
SN12C = system: SN12C
MDA-MB-435 = system: MDA-MB-435
HCT-116 = system: HCT-116
RPMI-8226 = system: RPMI-8226
SF-539 = system: SF-539
SF-268 = system: SF-268
KM12 = system: KM12
HOP-62 = system: HOP-62
Malme-3M = system: Malme-3M
SNB-19 = system: SNB-19
A549 = system: A549
UACC-62 = system: UACC-62
NCI-H522 = system: NCI-H522
UO-31 = system: UO-31
MOLT-4 = system: MOLT-4

Measured: GI50

O=C(O)CSc1nnc2c3ccccc3c3ccccc3c2n1
inactive: MDA-N 73.8 µM | 786-0 56.2 µM | MDA-MB-231 67.3 µM | CAKI-1 > 100 µM | OVCAR-8 50.4 µM | SN12C 38.9 µM | MDA-MB-435 52 µM | HCT-116 38.2 µM | RPMI-8226 32.4 µM | SF-539 52.2 µM | SF-268 56.1 µM | KM12 42 µM | HOP-62 46 µM | Malme-3M 30 µM | SNB-19 44.7 µM | A549 49.5 µM | UACC-62 61.9 µM | NCI-H522 49.9 µM | UO-31 33.6 µM

CN1CC2CN(Cc3ccccc3)CCN2c2cccnc21 (configuration not stated)
inactive: MDA-N 38.6 µM | 786-0 52.1 µM | MDA-MB-231 97.1 µM | CAKI-1 93.1 µM | OVCAR-8 48.2 µM | MDA-MB-435 30.5 µM | MOLT-4 35.6 µM | HCT-116 10.6 µM | RPMI-8226 27.5 µM | SF-539 62.8 µM | SF-268 54.3 µM | KM12 23.9 µM | HOP-62 > 100 µM | Malme-3M 47 µM | SNB-19 64.7 µM | A549 > 100 µM | UACC-62 68.4 µM | NCI-H522 28.8 µM | UO-31 69.3 µM

CC(C)=CCN(N=O)c1ncnc2[nH]cnc12
inactive: MDA-N > 100 µM | 786-0 > 100 µM | MDA-MB-231 > 100 µM | CAKI-1 > 100 µM | OVCAR-8 > 100 µM | SN12C > 100 µM | MDA-MB-435 > 100 µM | MOLT-4 > 100 µM | HCT-116 > 100 µM | RPMI-8226 88.1 µM | SF-539 > 100 µM | SF-268 > 100 µM | KM12 > 100 µM | HOP-62 > 100 µM | Malme-3M > 100 µM | SNB-19 > 100 µM | A549 > 100 µM | NCI-H522 > 100 µM | UO-31 > 100 µM

CC1(C)CC(=O)c2c(N)n[nH]c2C1
inactive: MDA-N > 100 µM | 786-0 > 100 µM | MDA-MB-231 > 100 µM | CAKI-1 > 100 µM | OVCAR-8 > 100 µM | SN12C > 100 µM | MDA-MB-435 > 100 µM | MOLT-4 > 100 µM | HCT-116 > 100 µM | RPMI-8226 > 100 µM | SF-539 > 100 µM | KM12 > 100 µM | HOP-62 > 100 µM | Malme-3M > 100 µM | SNB-19 > 100 µM | A549 > 100 µM | UACC-62 > 100 µM | NCI-H522 > 100 µM | UO-31 > 100 µM

[N-]=[N+]=Nc1c(-c2ccccc2)c(Cl)nc2ccccc12
inactive: MDA-N 27 µM | 786-0 38 µM | MDA-MB-231 31.8 µM | CAKI-1 31.8 µM | OVCAR-8 58.2 µM | SN12C 32.5 µM | MDA-MB-435 38.3 µM | MOLT-4 51.4 µM | HCT-116 47.8 µM | RPMI-8226 29.7 µM | SF-539 43.8 µM | SF-268 48.1 µM | KM12 19.1 µM | HOP-62 34.1 µM | Malme-3M 34.8 µM | SNB-19 29.9 µM | A549 29.9 µM | NCI-H522 18.1 µM | UO-31 15.5 µM

CCOc1ccc(N2C(=O)NC3(c4ccccc4)N(C)C(=O)N(C)C23c2ccccc2)cc1 (configuration not stated)
inactive: MDA-N 62.4 µM | 786-0 > 100 µM | MDA-MB-231 83.6 µM | CAKI-1 > 100 µM | OVCAR-8 61.1 µM | SN12C > 100 µM | MDA-MB-435 > 100 µM | MOLT-4 30.4 µM | HCT-116 78 µM | RPMI-8226 57.1 µM | SF-539 > 100 µM | KM12 55.3 µM | HOP-62 > 100 µM | Malme-3M > 100 µM | SNB-19 > 100 µM | A549 56.8 µM | UACC-62 86.3 µM | NCI-H522 33.9 µM | UO-31 92.9 µM

CCOC(=O)NN(C(=O)OCC)C(C(=O)C1=CCCCC1)N(NC(=O)OCC)C(=O)OCC
inactive: MDA-N > 100 µM | 786-0 > 100 µM | MDA-MB-231 > 100 µM | CAKI-1 > 100 µM | OVCAR-8 > 100 µM | SN12C > 100 µM | MDA-MB-435 > 100 µM | MOLT-4 > 100 µM | HCT-116 > 100 µM | RPMI-8226 > 100 µM | SF-539 9.57 µM | SF-268 > 100 µM | KM12 > 100 µM | HOP-62 > 100 µM | Malme-3M > 100 µM | SNB-19 > 100 µM | A549 > 100 µM | NCI-H522 > 100 µM | UO-31 > 100 µM

CC(C)(C)OC(=O)NC(Cc1ccc([N+](=O)[O-])cc1)C(=O)NCC(=O)OCc1ccccc1 (configuration not stated) (Boc-[ξPhe(4-NO2)]-Gly-OBn)
inactive: MDA-N 19.1 µM | 786-0 11.4 µM | MDA-MB-231 31.3 µM | CAKI-1 13.1 µM | OVCAR-8 22.2 µM | SN12C 20.7 µM | MDA-MB-435 16.9 µM | MOLT-4 15 µM | HCT-116 26.5 µM | RPMI-8226 21 µM | SF-268 19.5 µM | KM12 31.4 µM | HOP-62 17.3 µM | Malme-3M 23.8 µM | SNB-19 55.3 µM | A549 47.4 µM | UACC-62 17 µM | NCI-H522 20.2 µM | UO-31 23.9 µM
